Data from patent US9480259B2, “Pyrazolopyrans having herbicidal and pharmaceutical properties” (BASF SE, priority 2012, dated 2016).

Experiments:
[1] = target: Arabidopsis thaliana SHMT; assay: SHMT activity assay (ED50 SHMT), coupled with N5,N10-CH2-THF dehydrogenase, NADH at 340 nm; assay type: biochemical; settings: values given as upper bounds
Outline: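 His-tagged SHMT purified on Ni-NTA. NADH formation followed at 340 nm for 30 min; ED50 from inhibition of initial velocity.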

[2] = test system: SETFA, AMARE, POLCO, CHEAL, GALAP; assay: Greenhouse herbicidal test, post-emergence, weed panel; assay type: in vivo; settings: application rate 1 kg/ha, scale 0 to 100
Text: (§1) The seeds of the test plants were sown separately for each species. For the post-emergence treatment, the test plants were first grown to a height of 2 to 5 cm, depending on the plant habit, and only then treated with the active ingredients which had been suspended or emulsified in water. For this purpose, the test plants were either sown directly and grown in the same containers, or they were first grown separately as seedlings and transplanted into the test containers a few days prior to treatment. Depending on the species, the plants were kept at 10-25° C. or 20-35° C. The test period extended over 8 to 9 days. During this time, the plants were tended, and their response to the individual treatments was evaluated. Evaluation was carried out using a scale from 0 to 100. 100 means no emergence of the plants, or complete destruction of at least the aerial moieties, and 0 means no damage, or normal course of growth. A good herbicidal activity is given at values of at least 70 and a very good herbicidal activity is given at values of at least 85. The plants used in the greenhouse experiments belonged to the following species: [table]

[3] = test system: AMARE (Amaranthus retroflexus); assay: Greenhouse herbicidal test, post-emergence, AMARE; assay type: in vivo; settings: Amaranthus retroflexus, application rate 1 kg/ha, scale 0 to 100, read-out: herbicidal activity against AMARE
Text: as §1

[4] = test system: CHEAL (Chenopodium album); assay: Greenhouse herbicidal test, post-emergence, CHEAL; assay type: in vivo; settings: Chenopodium album, application rate 1 kg/ha, scale 0 to 100, read-out: herbicidal activity against CHEAL
Text: as §1

GALAP (Galium aparine) = assay: Greenhouse herbicidal test, post-emergence, GALAP; assay type: in vivo; settings: application rate 1 kg/ha, scale 0 to 100
Text: as §1

SETFA (Setaria faberi) = assay: Greenhouse herbicidal test, post-emergence, SETFA; assay type: in vivo; settings: application rate 1 kg/ha, scale 0 to 100, read-out: herbicidal activity against SETFA
Text: as §1

[5] = Arabidopsis thaliana SHMT enzyme assay

Compound | EC50 ([1]; Table 2) | herbicidal activity against at least three of the weeds SETFA, AMARE, POLCO, CHEAL, GALAP [2] | pest or weed control at 1000 g/ha [3] | pest or weed control at 1000 g/ha [4] | herbicidal activity against GALAP (GALAP (Galium aparine)) | EC50 [1, 5] | pest or weed control at 1000 g/ha (SETFA (Setaria faberi))
COc1c(C#N)cc(C2(C3CCC3)C(C#N)=C(N)Oc3[nH]nc(C)c32)cc1C#N (stereo not shown) [Compound 2.486] | < 10 nM | good or very good | ≥ 85% | ≥ 70% | very good (a very good herbicidal activity is given at values of at least 85) |  | 
Cc1n[nH]c2c1C(c1cc(C#N)cc(N(C)C(=O)CC#N)c1)(C(C)C)C(C#N)=C(N)O2 (stereo not shown) [Compound 2.662] |  | good or very good | ≥ 85% | ≥ 85% |  | < 10 nM | ≥ 85%
Cc1n[nH]c2c1C(c1cc(C#N)cc(N(C)C(=O)CCC#N)c1)(C(C)C)C(C#N)=C(N)O2 (stereo not shown) [Compound 2.663] |  | good or very good | ≥ 85% | ≥ 70% |  | < 10 nM | ≥ 85%
Cc1n[nH]c2c1C(c1cc(C#N)cc(N(C)C(=O)CCCC#N)c1)(C(C)C)C(C#N)=C(N)O2 (stereo not shown) [Compound 2.664] |  | good or very good | ≥ 85% | ≥ 85% |  | < 10 nM | ≥ 85%
Cc1n[nH]c2c1C(c1cc(C#N)cc(CCCC#N)c1)(C(C)C)C(C#N)=C(N)O2 (stereo not shown) [Compound 2.675] |  | good or very good | ≥ 85% | ≥ 85% |  | < 10 nM | ≥ 70%
COCC(=O)N(C)c1cc(C#N)cc(C2(C(C)C)C(C#N)=C(N)Oc3[nH]nc(C)c32)c1 (stereo not shown) [Compound 2.688] |  | good or very good | ≥ 85% | ≥ 85% |  | < 10 nM | ≥ 85%
CC(=O)NCC(=O)N(C)c1cc(C#N)cc(C2(C3CCC3)C(C#N)=C(N)Oc3[nH]nc(C)c32)c1 (stereo not shown) [Compound 2.709] |  | good or very good | ≥ 85% | ≥ 85% |  | < 100 nM | ≥ 70%
Cc1n[nH]c2c1C(c1cc(Br)cc(N(C)C(=O)CC#N)c1)(C1CCC1)C(C#N)=C(N)O2 (stereo not shown) [Compound 2.729] |  | good or very good | ≥ 85% | ≥ 85% |  | < 10 nM | ≥ 70%
